Reference: patent US8349827B2, “Substituted dipyrido-pyrimido-diazepine and benzo-pyrido-pyrimido compounds” (ArQule, Inc., priority 2009, dated 2013)

Key:
MDA-MB-231 = experiment: MTS assay, MDA-MB-231 cells; type: cell-based; conditions: Homo sapiens, 72 hours
Protocol: (§1) Cells were maintained at 37° C., 5% CO2 in DMEM media supplemented with 1% fetal bovine serum, penicillin/streptomycin and fungizone (Invitrogen). Cells were seeded into 96-well tissue culture plates at 3000 per well and cultured at 37° C. for 18 hours. Test compounds were dissolved and diluted to 300× in DMSO then diluted 1:40 in DMEM. Cells were incubated with test compounds for 72 hours followed by incubation with tetrazolium compound (3-(4,5-dimethylthiazol-2-yl)-5-(3-carboxymethoxyphenyl)-2-(4-sulfophenyl)-2H-tetrazolium, inner salt; MTS) and the electron coupling reagent, phenazine methosulfate (PMS) for 4 hours. […] The ability of compounds to inhibit cell growth in this assay is correlated with the reduction of dehydrogenase enzyme activity found in metabolically active cells. The measurement of the absorbance of the formazan was assessed using an ENVISION™ (Perkin Elmer) microplate reader at 492 nm. The calculated IC50 value is the concentration of the test compound that causes a 50% decrease in the absorbance.

NCI-H1299 = experiment: MTS assay, NCI-H1299 cells; type: cell-based; conditions: Homo sapiens, 72 hours
Protocol: as §1

DLD-1 = experiment: MTS assay, DLD-1 cells; type: cell-based; conditions: Homo sapiens, 72 hours
Protocol: as §1

KATO III = experiment: MTS assay, KATO III cells; type: cell-based; conditions: Homo sapiens, 72 hours
Protocol: as §1

ABL = ABL (Homo sapiens, UniProt P00519); experiment: ABL Kinase Activity Assay (Elisa), ABL; type: biochemical; conditions: ATP 100 μM, read-out: Abl Enzymetic assay (Elisa) % inhibition
Protocol: (§2) ABL Kinase Activity Assay
(§3) The disclosed compounds were assayed for their ability to inhibit the activity of ABL kinase. Nunc Maxisorb plates were coated with streptavidin by overnight incubation with 100 μL per well of 1 μg/ml streptavidin in DPBS. Prior to the experiment, the plates were washed with TBST (3×200 μL) and blocked for at least 3 hours by adding 150 μL of 5% BSA/TBST. The plates were washed with TBST (3×200 μL/well) and left dry immediately before the capture step.
(§4) The disclosed test compounds and controls (Gleevec) were prepared using the following assay buffer@10× desired final concentration (50 mM Tris pH 7.0, 0.02 mg/ml BSA, 10 mM MgCl2, 0.1 mM Na3VO4, 1 mM EGTA, 0.01% NP-40, 1 mM DTT in 10% glycerol/water). In a reaction plate, 5 μl test article (or control) and 30 μl ABL or ABL T315I (0.089 nM final concentration, in the above buffer) were added rapidly. The plate was incubated for 20 minutes. To the reaction plate was added ATP (100 μM final concentration) and AblTide (128 nM final concentration) in a volume of 15 μl. The plate was incubated at room temperature for one hour.
(§5) From the reaction plate, 40 μl was transferred to the streptavidin coated plate. The capture plate was incubated at room temperature for 30 minutes, then washed 3× with TBST. To the capture plate was added 100 μL/well of cell signaling anti-phospho tyrosine at a dilution of 1:3000 in 2% BSA/TBST. The plate was incubated for two hours at room temperature then washed 3× with TBST. To the capture plate was added 100 μL/well of alkaline phosphatase tagged goat anti mouse antibody at a dilution of 1:4000 in 2% BSA/TBST. The plate was incubated for one hour at room temperature then washed 3× with TBST.
(§6) The fluorescent readout was initiated by the addition of 100 μl/well of Attophos reagent (6 mg/10 mL). The reading was done on the Perkin Elmer Envision system.

PC-3 = experiment: MTS assay, PC-3 cells; type: cell-based; conditions: Homo sapiens, 72 hours
Protocol: as §1

PACA-2 = experiment: MTS assay, PACA-2 cells; type: cell-based; conditions: 72 hours
Protocol: as §1

ABL T315I = ABL T315I (Homo sapiens, UniProt P00519, T315I); experiment: ABL Kinase Activity Assay (Elisa), ABL T315I; type: biochemical; conditions: ATP 100 μM, read-out: Abl(T315I) Enzymetic assay (Elisa) % inhibition
Protocol: as §2, §3, §4, §5, §6

| inhibition at 10 µM (ABL) [%] | inhibition at 10 µM (ABL T315I) [%] | Compound | inhibition at 10 µM (MDA-MB-231) [%] | inhibition at 10 µM (NCI-H1299) [%] | inhibition at 10 µM (DLD-1) [%] | inhibition at 10 µM (KATO III) [%] | inhibition at 10 µM (PC-3) [%] | inhibition at 10 µM (PACA-2) [%] |
| --- | --- | --- | --- | --- | --- | --- | --- | --- |
| 50 to 79 | 80 to 100 | O=C1CCCN1CCCNc1ncc2c(n1)-c1cccnc1Nc1cnccc1-2 [Example 4, 1-[3-(9H-dipyrido[2,3-b:4′,3′-f]pyrimido[4,5-d]azepin-2-ylamino)propyl]pyrrolidin-2-one] | < 50 | < 50 | < 50 | < 50 | < 50 |  |
| 80 to 100 | 80 to 100 | Fc1ccc(CNc2ncc3c(n2)-c2cccnc2Nc2cnccc2-3)c(Cl)c1 [Example 10, N-(2-chloro-4-fluorobenzyl)-9H-dipyrido[2,3-b:4′,3′-f]pyrimido[4,5-d]azepin-2-amine] | < 50 | < 50 |  |  | < 50 |  |
| 80 to 100 | 80 to 100 | CC(CO)Nc1ncc2c(n1)-c1cccnc1Nc1cnccc1-2 (centres unmarked) [Example 17, 2-(9H-dipyrido[2,3-b:4′,3′-f]pyrimido[4,5-d]azepin-2-ylamino)propan-1-ol] |  |  |  | < 50 | < 50 |  |
| 80 to 100 | 80 to 100 | CCC(CC)Nc1ncc2c(n1)-c1cccnc1Nc1cnccc1-2 [Example 18, N-(1-ethylpropyl)-9H-dipyrido[2,3-b:4′,3′-f]pyrimido[4,5-d]azepin-2-amine] | < 50 | < 50 | < 50 | 50 to 79 | < 50 |  |
| 50 to 79 | < 50 | COc1cc(CCNc2ncc3c(n2)-c2cccnc2Nc2cnccc2-3)cc(OC)c1 [Example 38, N-[2-(3,5-dimethoxyphenyl)ethyl]-9H-dipyrido[2,3-b:4′,3′-f]pyrimido[4,5-d]azepin-2-amine] |  |  | < 50 | < 50 | < 50 | < 50 |
| 80 to 100 | 80 to 100 | Brc1ccc(CCNc2ncc3c(n2)-c2cccnc2Nc2cnccc2-3)cc1 [Example 46, N-[2-(4-bromophenyl)ethyl]-9H-dipyrido[2,3-b:4′,3′-f]pyrimido[4,5-d]azepin-2-amine] |  | < 50 | 50 to 79 | 50 to 79 | < 50 | < 50 |
| 80 to 100 | 80 to 100 | CN(C)CCCCCNc1ncc2c(n1)-c1cccnc1Nc1cnccc1-2 [Example 48, N′-9H-dipyrido[2,3-b:4′,3′-f]pyrimido[4,5-d]azepin-2-yl-N,N-dimethylpentane-1,5-diamine] | 50 to 79 |  | < 50 | < 50 | 50 to 79 | < 50 |
| 50 to 79 | < 50 | CN(C)CCCNc1ncc2c(n1)-c1cccnc1Nc1cnccc1-2 [Example 50, N′-9H-dipyrido[2,3-b:4′,3′-f]pyrimido[4,5-d]azepin-2-yl-N,N-dimethylpropane-1,3-diamine] |  |  |  | < 50 | < 50 | < 50 |
| 80 to 100 | 80 to 100 | c1cnc2c(c1)-c1nc(NC3CCNCC3)ncc1-c1ccncc1N2 [Example 59, N-piperidin-4-yl-9H-dipyrido[2,3-b:4′,3′-f]pyrimido[4,5-d]azepin-2-amine] | 80 to 100 |  |  | 80 to 100 | 80 to 100 |  |

The next lines start with the compound.

| Compound | inhibition at 10 µM (ABL) [%] | inhibition at 10 µM (ABL T315I) [%] | inhibition at 10 µM (MDA-MB-231) [%] | inhibition at 10 µM (NCI-H1299) [%] | inhibition at 10 µM (DLD-1) [%] | inhibition at 10 µM (KATO III) [%] | inhibition at 10 µM (PC-3) [%] | inhibition at 10 µM (PACA-2) [%] |
| --- | --- | --- | --- | --- | --- | --- | --- | --- |
| FC(F)(F)c1ccccc1CNc1ncc2c(n1)-c1cccnc1Nc1cnccc1-2 [Example 3, N-[2-(trifluoromethyl)benzyl]-9H-dipyrido[2,3-b:4′,3′-f]pyrimido[4,5-d]azepin-2-amine] | 50 to 79 | 80 to 100 | < 50 | 50 to 79 | < 50 | < 50 | < 50 | < 50 |
| c1ccc(-c2cccc(CNc3ncc4c(n3)-c3cccnc3Nc3cnccc3-4)c2)cc1 [Example 45, N-(biphenyl-3-ylmethyl)-9H-dipyrido[2,3-b:4′,3′-f]pyrimido[4,5-d]azepin-2-amine] | 80 to 100 | 80 to 100 |  | 50 to 79 | 80 to 100 | 80 to 100 | < 50 | 80 to 100 |
| c1ccc(CNc2ncc3c(n2)-c2cccnc2Nc2cnccc2-3)nc1 [Example 49, N-(pyridin-2-ylmethyl)-9H-dipyrido[2,3-b:4′,3′-f]pyrimido[4,5-d]azepin-2-amine] |  |  | 80 to 100 | 80 to 100 | 80 to 100 | 80 to 100 | 80 to 100 | 80 to 100 |
| CC(=O)N1CCN(c2ncc3c(n2)-c2cccnc2Nc2cnccc2-3)CC1 [Example 57, 2-(4-acetylpiperazin-1-yl)-9H-dipyrido[2,3-b:4′,3′-f]pyrimido[4,5-d]azepine] |  |  | 80 to 100 | 80 to 100 | 80 to 100 | 80 to 100 | 80 to 100 | 80 to 100 |
| CC(C)(C)C(=O)N1CCN(c2ncc3c(n2)-c2cccnc2Nc2cnccc2-3)CC1 [Example 58, 2-[4-(2,2-dimethylpropanoyl)piperazin-1-yl]-9H-dipyrido[2,3-b:4′,3′-f]pyrimido[4,5-d]azepine] |  |  | < 50 |  | 80 to 100 | 50 to 79 | 50 to 79 | 80 to 100 |
| Nc1ncc2c(n1)-c1cccnc1Nc1ccccc1-2 [Example 62, 9H-pyrido[2,3-b]pyrimido[4,5-d][1]benzazepin-2-amine] | 50 to 79 | 50 to 79 | < 50 |  |  | < 50 | < 50 | < 50 |
| Fc1ccc(CNc2ncc3c(n2)-c2cccnc2Nc2ccccc2-3)c(F)c1 [Example 64, N-(2,4-difluorobenzyl)-9H-pyrido[2,3-b]pyrimido[4,5-d][1]benzazepin-2-amine] | 50 to 79 | < 50 | < 50 | < 50 | < 50 | < 50 | < 50 |  |
| CC(=O)N1CCN(c2ncc3c(n2)-c2cccnc2Nc2ccccc2-3)CC1 [Example 68, 2-(4-acetylpiperazin-1-yl)-9H-pyrido[2 ,3-b]pyrimido[4,5-d][1]benzazepine] |  |  | 80 to 100 | 50 to 79 | 80 to 100 | 80 to 100 | 80 to 100 | 80 to 100 |
| Fc1ccc(CNc2ncc3c(n2)-c2ccccc2Nc2cnccc2-3)c(F)c1 [Example 69, N-(2,4-difluorobenzyl)-9H-pyrido[3,4-b]pyrimido[5,4-d][1]benzazepin-2-amine] |  |  | 80 to 100 | 80 to 100 | 80 to 100 | 80 to 100 | 80 to 100 | 80 to 100 |
| Clc1cccc(CNc2ncc3c(n2)-c2ccccc2Nc2cnccc2-3)c1 [Example 70, N-(3-chlorobenzyl)-9H-pyrido[3,4-b]pyrimido[5,4-d][1]benzazepin-2-amine] |  |  | 80 to 100 | 80 to 100 | 80 to 100 | 80 to 100 | 80 to 100 | 80 to 100 |
